# Assays:
# Format in all cases: cell-based, human
# [1] = test system: Circulating tumour cells (CTCs) from a patient with GI cancer (Cholangio Carcinoma, stage 4); test: Drug response score assay on blood sample, Example 9; design: key to Drug response score from blood sample, conc. 1 / Drug response score from blood sample, conc. 2 / Drug response score from blood sample, conc. 3 / Drug response score from blood sample, conc. 4: normalized drug response metric per Gupta et al. 2020; conditions: for effectiveness on Circulating Tumour Cells under laboratory conditions: GI cancer (Cholangio Carcinoma) blood sample; for Drug response score from blood sample, conc. 1: conc. 1 of each drug as in Table 27; for Drug response score from blood sample, conc. 1 / Drug response score from blood sample, conc. 2 / Drug response score from blood sample, conc. 3 / Drug response score from blood sample, conc. 4: t96h; for Drug response score from blood sample, conc. 2: conc. 2 of each drug as in Table 27; for Drug response score from blood sample, conc. 3: conc. 3 of each drug as in Table 27; for Drug response score from blood sample, conc. 4: conc. 4 of each drug as in Table 27; for Drug sensitivity as calculated by the assay, Blood: interpretation based on Drug Response Scores; for Drug response score from blood sample, conc. 1 / Drug response score from blood sample, conc. 2 / Drug response score from blood sample, conc. 3 / Drug response score from blood sample, conc. 4 / Drug sensitivity as calculated by the assay, Blood: blood sample
# Description: (§1) CD45^+ cells and circulating tumour cells (CTCs) were isolated from a blood sample provided by each subject.
# (§2) CD45 separation was performed by adding human CD45 microbeads (50 μl/ml blood), incubating for 15 minutes at 4° C. and then processing using an AutoMACS machine. This separates the blood sample into CD45^+ and CD45^−cells in 2 separate falcons. The falcon tubes are then centrifuged at 1200 rpm for 5 minutes.
# (§3) The supernatant was removed from the CD45^+falcon tube, and the cells resuspended in DMEM with 2 μl Cell Tox, 2 μl MT and 2 μl MT. 20 μl of the resuspended CD45^+ cells was then plated in each well which will contain an immunotherapy treatment.
# (§4) The supernatant was removed from the CD45^−falcon tube, and the CD45^−cells contacted with 100 μl of FcR block and 100 μl of CD326 (EpCAM) MicroBeads, followed by incubation at […] 4° C. for 30 minutes. The CD45^−cells were then processed using an AutoMACS machine to separate the EpCAM positive and negative cells into 2 separate falcon tubes. The EpCAM-cells were discarded. The supernatant was removed from the EpCAM^+ cells, and the cells resuspended in DMEM with 2 μl Cell Tox, 2 μl MT and 2 μl MT. 20 μl of the resuspended pellet was then added to all sample wells excluding a blank. After all wells are added to, a cell count was conducted on the […] to determine the number of circulating tumour cells (CTCs).
# (§5) The different cell types were each divided equally into populations, depending on the number of drugs/concentrations to be tested and plated on a cell-culture plate pre-coated with a scaffold of polycaprolactone (PCL) electrospun fibres and incubated at 37° C., 5% CO2, for 5 to (typically 10) minutes to facilitate cell attachment. After attachment, an initial imaging step was carried out using the RealTime-Glo™ MT assay from Promega (Catalogue No. G9711)) and the CellTox™ Green Cytotoxicity Assay (Promega, Catalogue No. G8741), carried out according to manufacturer's instructions. Following this initial imagining, the immunotherapeutic and/or chemotherapeutic agents were added to the cell populations as indicated below. After 10 minutes, the imagining step was repeated. The cell populations were then incubated at 37° C., 5% CO2 for 48 hours. The imaging step was then repeated. The cell populations were then re-dosed with the same immunotherapeutic and/or chemotherapeutic agents as indicated below, and incubated at 37° C., 5% CO2 for a further 48 hours. After this second 48 hour incubation, the imagining step was repeated for a final time.
# (§6) At the end of this culture period, dose response scores were calculated using a normalized drug response metric as described in Gupta et al. (Communications Biology volume 3, Article number: 42 (2020), https://doi.org/10.1038/s42003-020-0765-z). The start readout for a given immunotherapeutic or chemotherapeutic agent at a given concentration was the to readout for said immunotherapeutic or chemotherapeutic agent at a specified concentration. The end readout for a given immunotherapeutic or chemotherapeutic agent at a given concentration was the final timepoint reading (t96h) for said immunotherapeutic or chemotherapeutic agent at a specified concentration.
# (§7) The positive control start readout for a given drug/concentration was the to readout for the corresponding drug at a specified concentration. The positive control end readout for the corresponding drug at a specified concentration was the final timepoint reading (t96h) for the corresponding blank well.
# (§8) The negative control start and end readouts for a given immunotherapeutic or chemotherapeutic agent at a given concentration were the to and final timepoint reading (t96h) respectively for blank cell or blank immuno cell well respectively.
# (§9) The sensitivity or resistance of a subject's cancer to a given immunotherapeutic or chemotherapeutic agent was determined based on the calculated drug response score as shown in Table 2. […]
# [2] = test system: Circulating Tumour Cells (CTCs) from a patient with rectal cancer (anorectal carcinoma with secondary lung cancer); test: Drug response score assay on CTCs (with CD45+ cells for immunotherapy) from blood, Example 3; conditions: for Drug response score, conc. 1: conc. 1: Pembro 20 μg/ml, Nivo 20 μg/ml (CTCs + CD45+ cells), Lenva 50 ng/ml, Regor 60 μg/ml (CTCs); for Drug response score, conc. 1 / Drug response score, conc. 2 / Drug response score, conc. 3 / Drug response score, conc. 4: t96h; for Drug response score, conc. 2: conc. 2: Pembro 40 μg/ml, Nivo 40 μg/ml (CTCs + CD45+ cells), Lenva 100 ng/ml, Regor 80 μg/ml (CTCs); for Drug response score, conc. 3: conc. 3: Pembro 100 μg/ml, Nivo 80 μg/ml (CTCs + CD45+ cells), Lenva 200 ng/ml, Regor 120 μg/ml (CTCs); for Drug response score, conc. 4: conc. 4: Pembro 160 μg/ml, Nivo 160 μg/ml (CTCs + CD45+ cells), Lenva 400 ng/ml, Regor 160 μg/ml (CTCs); for effectiveness on Circulating Tumour Cells under laboratory conditions / Drug sensitivity as calculated by the assay (interpretation of Drug Response Scores): rectal cancer CTCs; for Drug sensitivity as calculated by the assay (interpretation of Drug Response Scores): Table 11
# Description: as §1, §2, §3, §4, §5, §6, §7, §8, §9
# [3] = test system: Circulating Tumour Cells (CTCs) from a patient with renal cancer; test: Drug response score assay on CTCs (with CD45+ cells for immunotherapy) from blood, Example 7; design: key to Drug response score, conc. 1 / Drug response score, conc. 2 / Drug response score, conc. 3 / Drug response score, conc. 4: normalized drug response metric per Gupta et al. 2020; conditions: for Drug response score, conc. 1: conc. 1: Pembr 20 μg/ml (CTCs + CD45+ cells), Docetax 0.02 μg/ml, Gemcit 2 μg/ml, Topo 5 μg/ml, Etop 1 μg/ml, Eribul 5 μg/ml (CTCs); for Drug response score, conc. 1 / Drug response score, conc. 2 / Drug response score, conc. 3 / Drug response score, conc. 4: t96h; for Drug response score, conc. 2: conc. 2: Pembr 40 μg/ml (CTCs + CD45+ cells), Docetax 0.2 μg/ml, Gemcit 10 μg/ml, Topo 10 μg/ml, Etop 4 μg/ml, Eribul 10 μg/ml (CTCs); for Drug response score, conc. 3: conc. 3: Pembr 100 μg/ml (CTCs + CD45+ cells), Docetax 2 μg/ml, Gemcit 20 μg/ml, Topo 50 μg/ml, Etop 20 μg/ml, Eribul 20 μg/ml (CTCs); for Drug response score, conc. 4: conc. 4: Pembr 160 μg/ml (CTCs + CD45+ cells), Docetax 10 μg/ml, Gemcit 40 μg/ml, Topo 100 μg/ml, Etop 100 μg/ml, Eribul 40 μg/ml (CTCs); for Drug sensitivity as calculated by the assay (interpretation of Drug Response Scores) / effectiveness on Circulating Tumour Cells under laboratory conditions: renal cancer CTCs; for Drug sensitivity as calculated by the assay (interpretation of Drug Response Scores): Table 23
# Description: as §1, §2, §3, §4, §5, §6, §7, §8, §9
# [4] = test system: Circulating Tumour Cells (CTCs, EpCam+CD45−) from a patient with stage II synovial sarcoma; test: Drug response score assay (RealTime-Glo MT / CellTox Green, PCL scaffold) on CTCs from blood, Example 1; design: key to Drug response score, conc. 1 / Drug response score, conc. 2 / Drug response score, conc. 3 / Drug response score, conc. 4: normalized drug response metric per Gupta et al. 2020; conditions: for Drug response score, conc. 1: conc. 1: Doxo 10 ng/ml, Ifos 0.125 μg/ml, Gemcit 2 μg/ml, Doce 0.02 μg/ml, Carbo 2 μg/ml, Dacarb 1.5 μg/ml, re-dosed at 48 h; for Drug response score, conc. 1 / Drug response score, conc. 2 / Drug response score, conc. 3 / Drug response score, conc. 4: CTCs, t96h; for Drug response score, conc. 2: conc. 2: Doxo 30 ng/ml, Ifos 0.25 μg/ml, Gemcit 10 μg/ml, Doce 0.2 μg/ml, Carbo 5 μg/ml, Dacarb 3 μg/ml; for Drug response score, conc. 3: conc. 3: Doxo 90 ng/ml, Ifos 5 μg/ml, Gemcit 20 μg/ml, Doce 2 μg/ml, Carbo 10 μg/ml, Dacarb 6 μg/ml; for Drug response score, conc. 4: conc. 4: Doxo 270 ng/ml, Ifos 10 μg/ml, Gemcit 40 μg/ml, Doce 10 μg/ml, Carbo 20 μg/ml, Dacarb 12 μg/ml; for Drug sensitivity as calculated by the assay (interpretation of Drug Response Scores): Table 5
# Description: as §1, §2, §4, §5, §6, §7, §8
# The sensitivity or resistance of a subject's cancer to a given immunotherapeutic or chemotherapeutic agent was determined based on the calculated drug response score as shown in Table 2.
# Blood samples from a patient with stage II synovial sarcoma (suspected spindle cell tumour) were received and tested using a 6 drug panel.
# Chemotherapeutic agents were tested as in Table 3.
Compound,effectiveness on Circulating Tumour Cells under laboratory conditions [1],"Drug response score from blood sample, conc. 1 [1]","Drug response score from blood sample, conc. 2 [1]","Drug response score from blood sample, conc. 3 [1]","Drug response score from blood sample, conc. 4 [1]","Drug response score, conc. 1 [2]","Drug response score, conc. 2 [2]","Drug response score, conc. 3 [2]","Drug response score, conc. 4 [2]",effectiveness on Circulating Tumour Cells under laboratory conditions [2],Drug sensitivity as calculated by the assay (interpretation of Drug Response Scores) [2],"Drug response score, conc. 1 [3]","Drug response score, conc. 2 [3]","Drug response score, conc. 3 [3]","Drug response score, conc. 4 [3]",Drug sensitivity as calculated by the assay (interpretation of Drug Response Scores) [3],"Drug response score, conc. 1 [4]","Drug response score, conc. 2 [4]","Drug response score, conc. 3 [4]","Drug response score, conc. 4 [4]",other results
COc1cc2nccc(Oc3ccc(NC(=O)NC4CC4)c(Cl)c3)c2cc1C(N)=O [Lenvatinib],S+,0.2851,0.3155,0.4097,0.6214,2.0109,1.6409,0.8991,2.0235,not effective,Resistant,,,,,,,,,,"Drug sensitivity as calculated by the assay, Blood [1]: S+"
CC(=O)O[C@H]1C(=O)[C@@]2(C)[C@H]([C@H](OC(=O)c3ccccc3)[C@]3(O)C[C@H](OC(=O)[C@H](O)[C@@H](NC(=O)c4ccccc4)c4ccccc4)C(C)=C1C3(C)C)[C@]1(OC(C)=O)CO[C@@H]1C[C@@H]2O [Paclitaxel],S+,0.2346,0.5329,0.5298,0.756,,,,,,,,,,,,,,,,
CC(=O)O[C@@]12CO[C@@H]1C[C@H](O)[C@@]1(C)C(=O)[C@H](O)C3=C(C)[C@@H](OC(=O)[C@H](O)[C@@H](NC(=O)OC(C)(C)C)c4ccccc4)C[C@@](O)([C@@H](OC(=O)c4ccccc4)[C@H]21)C3(C)C [Docetaxel],,,,,,,,,,,,0.0585,−0.1811,0.0514,−0.1468,Sensitive (S+),0.8633,0.7451,0.6992,0.4852,Drug sensitivity as calculated by the assay (interpretation of Drug Response Scores) ([4]; synovial sarcoma CTCs): Sensitive (S+)
Nivolumab,,1,0.2783,1.061,1.046,0.4990,0.6429,0.6261,1.0807,Sensitive S+,Sensitive (S+),,,,,,,,,,
COc1cc([C@@H]2c3cc4c(cc3[C@@H](O[C@@H]3O[C@@H]5CO[C@@H](C)O[C@H]5[C@H](O)[C@H]3O)[C@H]3COC(=O)[C@H]23)OCO4)cc(OC)c1O [Etoposide],,,,,,,,,,,,−0.2179,−0.1141,−0.1357,−0.0050,Sensitive (S++),,,,,effectiveness on Circulating Tumour Cells under laboratory conditions [3]: Sensitive S++
COc1cccc2c1C(=O)c1c(O)c3c(c(O)c1C2=O)C[C@@](O)(C(=O)CO)C[C@@H]3O[C@H]1C[C@H](N)[C@H](O)[C@H](C)O1 [Doxorubicin],,,,,,,,,,,,,,,,,0.9432,0.7234,0.8842,0.8405,effectiveness on Circulating Tumour Cells under laboratory conditions ([4]; synovial sarcoma CTCs): marginally less effective compared to other drugs; Drug sensitivity as calculated by the assay (interpretation of Drug Response Scores) ([4]; synovial sarcoma CTCs): Sensitive (S+)
O=P1(NCCCl)OCCCN1CCCl (stereo not drawn) [Ifosfamide],,,,,,,,,,,,,,,,,0.7534,0.6369,0.7555,0.5976,Drug sensitivity as calculated by the assay (interpretation of Drug Response Scores) ([4]; synovial sarcoma CTCs): Sensitive (S+)
Pembrolizumab,S+,0.00068,0.1572,1.041,0.6989,0.6167,0.4053,0.9748,0.7712,Sensitive S+,Sensitive (S+),−0.0194,0.1577,0.0468,−0.0364,Sensitive (S+),,,,,"effectiveness on Circulating Tumour Cells under laboratory conditions [3]: Sensitive S+; Drug sensitivity as calculated by the assay, Blood [1]: S+"

# From patent US20250290915A1, “METHOD FOR PREDICTING RESPONSIVENESS TO THERAPY” (CANCERTAIN LIMITED, priority 2022, published 2025)
